This passage reports Ki, IC50 and inhibition results from US6534524B1, “Indazole compounds and pharmaceutical compositions for inhibiting protein kinases, and methods for their use” (Agouron Pharmaceuticals, Inc., priority 1999, dated 2003).

One assay has as its target CDK4/Cyclin D3 complex (Homo sapiens, UniProt P11802). In words: CDK4/Cyclin D assay ([32P]ATP, Rb fragment).
The next assay has as its target CDK2/Cyclin A (Homo sapiens, UniProt P24941). The assay can be described thus: CDK2/Cyclin A assay ([32P]ATP, Rb fragment). The format is biochemical.
For assay [1], the target named is unphosphorylated VEGF-R2Δ50 (FLVK) (Homo sapiens, UniProt P35968, DEL940-989/E990V). The assay can be described thus: VEGF-R2 coupled spectrophotometric assay, unphosphorylated VEGF-R2Δ50 (FLVK). The following applies: FLVK Ki, Table 1.
In assay [2] the test system is human umbilical vein endothelial cells (HUVEC). The assay can be described thus: HUVEC proliferation assay (VEGF-stimulated, MTT). It is filed as cell-based. The following applies: Homo sapiens, HUVEC; read-out: HUVEC IC50.
Another assay concerns the target T1, human CHK1 (FL-CHK1) (Homo sapiens, UniProt O14757).
T1 construct: C-terminally His-tagged full-length human CHK1 (FL-CHK1); made in house; host or cells: baculovirus/insect cell system
T1 sequence (O14757 1-476): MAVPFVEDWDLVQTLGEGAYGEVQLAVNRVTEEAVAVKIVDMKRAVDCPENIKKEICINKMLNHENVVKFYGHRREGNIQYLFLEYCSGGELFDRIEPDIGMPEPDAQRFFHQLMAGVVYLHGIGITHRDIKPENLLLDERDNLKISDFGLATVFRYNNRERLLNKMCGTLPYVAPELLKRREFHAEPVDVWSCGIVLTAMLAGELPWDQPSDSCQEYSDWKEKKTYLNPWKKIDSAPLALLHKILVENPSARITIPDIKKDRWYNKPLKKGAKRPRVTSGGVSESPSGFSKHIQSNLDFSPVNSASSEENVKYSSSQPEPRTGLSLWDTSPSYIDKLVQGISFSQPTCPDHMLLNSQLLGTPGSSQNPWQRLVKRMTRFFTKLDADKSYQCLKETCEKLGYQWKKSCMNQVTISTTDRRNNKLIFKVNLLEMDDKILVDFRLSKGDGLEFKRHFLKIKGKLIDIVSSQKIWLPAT
The assay can be described thus: CHK1 assay (coupled spectrophotometric, Syntide-2). It is filed as biochemical. The following applies: Table 1; for Ki: read-out: CHK-1 Ki. An excerpt:
CHK1 Construct for Assay: C-terminally His-tagged full-length human CHK1 (FL-CHK1) was expressed using the baculovirus/insect cell system. […] The protein was purified by conventional chromatographic techniques.
The production of ADP from ATP that accompanies phosphoryl transfer to the synthetic substrate peptide Syntide-2 ([…]) was coupled to oxidation of NADH using phosphoenolpyruvate (PEP) through the actions of pyruvate kinase (PK) and lactic dehydrogenase (LDH). The oxidation of NADH was monitored by following the decrease of absorbance at 340 nm (ε340=6.22 cm^−1 mM^−1) using a HP8452 spectrophotometer. […] Assays were initiated with 10 nM of FL-CHK1. Ki values were determined by measuring initial enzyme activity in the presence of varying concentrations of test compounds. The data were analyzed using Enzyme Kinetic and Kaleidagraph software.

In the next assay the target is human FGF-R1 (Homo sapiens, UniProt P11362, C488A/C584S/L457V). The assay can be described thus: FGF-R spectrophotometric assay.

The structures appear in SMILES notation.

CDK4/Cyclin D3 complex, sequence (P11802 whole entry, the tested form may be a part): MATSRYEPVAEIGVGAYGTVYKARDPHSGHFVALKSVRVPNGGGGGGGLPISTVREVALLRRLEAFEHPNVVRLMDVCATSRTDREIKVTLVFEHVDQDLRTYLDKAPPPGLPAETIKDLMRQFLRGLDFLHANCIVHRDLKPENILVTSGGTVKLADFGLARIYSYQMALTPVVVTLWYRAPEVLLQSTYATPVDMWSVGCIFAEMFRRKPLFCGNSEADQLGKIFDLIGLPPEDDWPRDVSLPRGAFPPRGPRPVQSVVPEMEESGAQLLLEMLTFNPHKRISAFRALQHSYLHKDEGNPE
CDK4/Cyclin D3 complex, sequence (P30281 whole entry partner, the tested form may be a part): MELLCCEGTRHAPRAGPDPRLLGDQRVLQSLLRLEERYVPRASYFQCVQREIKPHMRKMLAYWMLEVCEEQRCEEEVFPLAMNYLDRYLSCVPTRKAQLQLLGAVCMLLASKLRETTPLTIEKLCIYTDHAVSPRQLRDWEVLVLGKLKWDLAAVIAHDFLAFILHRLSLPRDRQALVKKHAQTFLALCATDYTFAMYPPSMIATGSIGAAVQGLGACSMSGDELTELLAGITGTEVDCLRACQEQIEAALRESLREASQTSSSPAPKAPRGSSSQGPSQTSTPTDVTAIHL
unphosphorylated VEGF-R2Δ50 (FLVK), sequence (P35968 with tags, fused parts or gaps DEL940-989/E990V limits assumed): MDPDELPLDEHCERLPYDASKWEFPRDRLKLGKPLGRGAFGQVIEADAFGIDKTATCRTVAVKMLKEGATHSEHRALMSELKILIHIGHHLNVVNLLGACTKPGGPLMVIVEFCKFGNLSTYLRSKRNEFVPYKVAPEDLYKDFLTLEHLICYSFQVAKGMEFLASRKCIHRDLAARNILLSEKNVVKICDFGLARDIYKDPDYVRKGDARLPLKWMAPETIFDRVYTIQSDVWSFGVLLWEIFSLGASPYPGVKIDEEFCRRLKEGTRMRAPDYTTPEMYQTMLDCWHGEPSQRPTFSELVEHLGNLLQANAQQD
human FGF-R1, sequence (P11362 456-766 L457V/C488A/C584S): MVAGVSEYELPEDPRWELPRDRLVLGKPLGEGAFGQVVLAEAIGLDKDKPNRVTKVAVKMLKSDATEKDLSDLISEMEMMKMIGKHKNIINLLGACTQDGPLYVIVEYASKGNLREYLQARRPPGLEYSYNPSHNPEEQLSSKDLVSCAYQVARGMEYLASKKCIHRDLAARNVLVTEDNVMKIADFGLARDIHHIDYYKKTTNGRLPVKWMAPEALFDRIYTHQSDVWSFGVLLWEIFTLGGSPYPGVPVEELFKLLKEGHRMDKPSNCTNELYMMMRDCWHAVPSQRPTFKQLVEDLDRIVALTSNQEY

On to `Fc1cccc(/C=C/c2n[nH]c3cc(-c4ccncc4)ccc23)c1F` [29(l), 6-Pyrid-4-yl-3-E-[2-(2,3-difluorophenyl)ethenyl]-1H-indazole], for which the Ki (commonly the dissociation constant of the complex between target and ligand, obtained from inhibition or displacement) on CDK4/Cyclin D3 complex was 5000 nM; on CDK2/Cyclin A (Table 3) it was 3.1 µM.
For `Oc1ccc(-c2ccc3c(/C=C/c4ccccc4)n[nH]c3c2)cc1OCc1ccccc1` [Example 1(b), 3-(E-Styryl)-6-(3-benzyloxy-4-hydroxy-phenyl)-1H-indazole], the Ki in assay [1] was found to be 2.2 nM; at CDK4/Cyclin D3 complex, 1300 nM; on CDK2/Cyclin A (Table 1), 4 µM; at human CHK1 (FL-CHK1), 1400 nM. The IC50 – broadly, the point on the concentration scale where inhibition reaches its midpoint – in assay [2] is greater than 1000 nM.
As to `COc1cc(-c2ccc3c(-c4ccc5ccccc5c4)n[nH]c3c2)ccc1O` [Example 2(a), 3-(Naphthalen-2-yl)-6-(3-methoxy-4-hydroxy-phenyl)-1H-indazole], the values for the Ki (in assay [1]; on CDK4/Cyclin D3 complex; on CDK2/Cyclin A (Table 1)) were 40 nM, 1600 nM and 0.61 µM, respectively. In assay [2], the IC50 was greater than 1000 nM. On human CHK1 (FL-CHK1) (read-out: CHK-1 % inhibition, @20 μM), the inhibition (as a rule, the percentage by which the read-out fell short of the control) at 20 µM is 61%.
Regarding `COc1cc(-c2ccc3c(-c4cc(OC)c(OC)c(OC)c4)n[nH]c3c2)ccc1O` [Example 2(c), 3-(3,4,5-Trimethoxyphenyl)-6-(3-methoxy-4-hydroxy-phenyl)-1H-indazole], the Ki in assay [1] was 2600 nM; at CDK4/Cyclin D3 complex it was 26000 nM; at CDK2/Cyclin A (Table 1, μM), 50 µM.
For the compound `Cc1cccc(C(=O)Nc2cccc(Oc3ccc4c(/C=C/c5ccccc5)n[nH]c4c3)c2)c1` [Example 5(b), 3-Methyl-N-[3-(3-styryl-1h-indazol-6-yloxy)-phenyl]-benzamide], at human FGF-R1, the Ki was 14 nM.
On to `Nc1cccc(Oc2ccc3c(/C=C/c4ccccc4)n[nH]c3c2)c1` [Example 7, 3-(Styryl-1H-indazol-6-yloxy)-phenylamine], for which the Ki in assay [1] amounted to 18 nM; on human CHK1 (FL-CHK1) it was 1300 nM.
On the same counts, the results for `Brc1cccc(Oc2ccc3c(/C=C/c4ccccc4)n[nH]c3c2)c1` [Example 8(d), 6-(3-Bromo-phenoxy)-3-styryl-1H-indazole] are 11 nM and 82000 nM.
As for `C=C(c1ccccc1)c1ccc2c(/C=C/c3ccccc3)n[nH]c2c1` [Example 10, 6-(1-Phenyl-vinyl)-3-styryl-1H-indazole], the inhibition constant (Ki) in assay [1] came to 9 nM; at human CHK1 (FL-CHK1), 9100 nM.
`Cc1cc(O)ccc1-c1ccc2c(-c3nc4ccccc4[nH]3)n[nH]c2c1` [Example 24(b), 4-[3-(1-H-Benzoimidazol-2-yl)-1-H-indazol-6-yl]-3-methyl-phenol] came in with a Ki at CDK4/Cyclin D3 complex of 3.2 nM.
As for `CCc1cc(O)ccc1-c1ccc2c(-c3nc4ccccc4[nH]3)n[nH]c2c1` [Example 24(e), 3-1H-Benzoimidazol-2-yl-6-(2-ethyl-4-hydroxyphenyl)-1H-indazole], the results for the Ki on CDK4/Cyclin D3 complex and at CDK2/Cyclin A (Table 2) were 4.4 nM and 0.03 µM, respectively.
As to `Oc1ccc(-c2ccc3c(-c4nc5ccccc5[nH]4)n[nH]c3c2)c(O)c1` [Example 24(f), 3-1H-Benzoimidazol-2-yl-6-(2,4-dihydroxyphenyl)-1H-indazole], the inhibition constant Ki at CDK4/Cyclin D3 complex stood at 7.4 nM; on CDK2/Cyclin A (Table 2), 0.0072 µM.
As to `COCCc1cc(O)ccc1-c1ccc2c(-c3nc4ccccc4[nH]3)n[nH]c2c1` [Example 24(h), 3-1H-Benzoimidazol-2-yl-6-(2-(2-methoxyethyl)-4-hydroxyphenyl)-1H-indazole], the results for the Ki on CDK4/Cyclin D3 complex and on CDK2/Cyclin A (Table 2) were 53 nM and 0.054 µM, respectively.
The like results for `Cc1cc(O)cc(C)c1-c1ccc2c(-c3nc4ccccc4[nH]3)n[nH]c2c1` [Example 24(j), 3-1H-Benzoimidazol-2-yl-6-(2,6-dimethyl-4-hydroxyphenyl)-1H-indazole] were, in that order, 320 nM and 2.1 µM.
With `COc1cc(-c2ccc3c(-c4nc5ccccc5[nH]4)n[nH]c3c2)c(CO)cc1O` [Example 24(n), 3-1H-Benzoimidazol-2-yl-6-(2-(hydroxymethyl)-5-methoxy-4-hydroxy-phenyl)-1H-indazole], the figures for the Ki on CDK4/Cyclin D3 complex and on CDK2/Cyclin A (Table 2) were 19 nM and 0.035 µM, respectively.
On the same counts, the results for `Oc1cccc(-c2ccc3c(-c4nc5ccccc5[nH]4)n[nH]c3c2)c1` [Example 24(o), 3-1H-Benzoimidazol-2-yl-6-(3-hydroxyphenyl)-1H-indazole] are 200 nM and 0.029 µM.
For `COc1c(O)cccc1-c1ccc2c(-c3nc4ccccc4[nH]3)n[nH]c2c1` [Example 24(p), 3-1H-Benzoinidazol-2-yl-6-(2-methoxy-3-hydroxyphenyl)-1H-indazole], the Ki on CDK4/Cyclin D3 complex was determined as 92 nM; on CDK2/Cyclin A (Table 2), 0.089 µM.
The like results for `COc1cc(O)ccc1-c1ccc2c(-c3nc4cnccc4[nH]3)n[nH]c2c1` [Example 25(a), 3-(3H-Iniidazo[4,5-c]pyridin-2-yl)-6-(4-hydroxy-2-methoxyphenyl)-1H-indazole] were, in that order, 21 nM and 0.08 µM.
For `COc1cc(O)ccc1-c1ccc2c(-c3nc4ccc(C(=O)NCCN5CCOCC5)cc4[nH]3)n[nH]c2c1` [Example 25(b), 3-[6-(2-Morpholin-4-yl-ethylcarbamoyl)-1H-benzoimidazol-2-yl]-6-(2-methoxy-4-hydroxyphenyl)-1H-indazole], at CDK4/Cyclin D3 complex, the Ki came to 48 nM.
For the compound `COc1cc(O)ccc1-c1ccc2c(-c3nc4ccc(N5CCN(C)CC5)cc4[nH]3)n[nH]c2c1` [Example 25(c), 3-[6-(4-Methylpiperazin-1-yl)-1H-benzoimidazol-2-yl]-6-(2-methoxy-4-hydroxyphenyl)-1H-indazole], the Ki on CDK4/Cyclin D3 complex worked out at 15.5 nM.
As for `COc1cc(O)ccc1-c1ccc2c(-c3nc4c(N5CCN(C)CC5)cccc4[nH]3)n[nH]c2c1` [Example 25(d), 3-[4-(4-Methylpiperazin-1-yl)-1H-benzoinidazol-2-yl]-6-(2-methoxy-4-hydroxyphenyl)-1H-indazole], the inhibitory constant (Ki) at CDK4/Cyclin D3 complex is 98 nM; at CDK2/Cyclin A (Table 2), 0.16 µM.
For `COc1cc(O)ccc1-c1ccc2c(-c3ncc[nH]3)n[nH]c2c1` [Example 25(e), 3-Imdazol-2-yl-6-(2-methoxy-4-hydroxyphenyl)-1H-indazole], on CDK4/Cyclin D3 complex, the affinity, expressed as Ki, was 181 nM.
Regarding `COc1cc(O)ccc1-c1ccc2c(-c3nc4c(SCCO)cccc4[nH]3)n[nH]c2c1` [Example 25(f), 3-[4-(2-Hydroxyethylsulfanyl)-1H-benzoimidazol-2-yl]-6-(2-methoxy-4-hydroxyphenyl)-1H-indazole], the results for the Ki at CDK4/Cyclin D3 complex and on CDK2/Cyclin A (Table 2) were 1000 nM and 0.39 µM, respectively.
With `CNC(=O)c1ccc2[nH]c(-c3n[nH]c4cc(-c5ccc(O)cc5OC)ccc34)nc2c1` [Example 25(g), 3-(5-Methylcarbamoyl-1H-benzoimidazol-2-yl)-6-(2-methoxy-4-hydroxyphenyl)-1H-indazole], the figures for the Ki on CDK4/Cyclin D3 complex and at CDK2/Cyclin A (Table 2) were 21 nM and 0.08 µM, respectively.
In the case of `COc1cc(O)ccc1-c1ccc2c(-c3nc4cc(N(C)C)ccc4[nH]3)n[nH]c2c1` [Example 25(h), 3-(5-Dimethylamino-1H-benzoimidazol-2-yl)-6-(2-methoxy-4-hydroxy-phenyl)-1H-indazole], the Ki on CDK4/Cyclin D3 complex came out at 24 nM; at CDK2/Cyclin A (Table 2), 0.17 µM.
In the case of `COc1cc(O)ccc1-c1ccc2c(-c3nc4ccc(S(N)(=O)=O)cc4[nH]3)n[nH]c2c1` [Example 25(i), 3-(5-Aminosulfonyl-1H-benzoimidazol-2-yl)-6-(2-methoxy-4-hydroxy-phenyl)-1H-indazole], the Ki on CDK4/Cyclin D3 complex was found to be 20 nM; at CDK2/Cyclin A (Table 2) it was 0.021 µM.
The like results for `CNC(=O)c1cccc2[nH]c(-c3n[nH]c4cc(-c5ccc(O)cc5OC)ccc34)nc12` [Example 25(j), 3-(4-Methylcarbamoyl-1H-benzoinidazol-2-yl)-6-(2-methoxy-4-hydroxy-phenyl)-1H-indazole] were, in that order, 16 nM and 0.079 µM.
Consider `Clc1ccc(/C=C/c2n[nH]c3cc(-c4ccncc4)ccc23)cc1` [Example 29(c), 6-Pyrid-4-yl-3-E-[2-(4-chlorophenyl)ethenyl]-1H-indazole], for which the Ki at CDK4/Cyclin D3 complex is 2000 nM; at CDK2/Cyclin A (Table 3), 2.2 µM.
